Reference: PubChem BioAssay (NCI)
Several values for one entry are separate records, joined by “and”; a condition that tells them apart may be missing. Identical values can stand only once.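 Briefly, cells in 96-well plates were exposed to five compound concentrations for 48 h, and endpoints were estimated by linear interpolation. Here, GI50 denotes the concentration required for 50% inhibition of growth. TGI: total growth inhibition.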

Assays:
Test in all cases: NCI tumour cell line growth inhibition, 48 h
KM12 colon = system: KM12 colon
NCI-H226 lung = system: NCI-H226 lung
NCI-H23 lung = system: NCI-H23 lung
M14 melanoma = system: M14 melanoma
U251 CNS = system: U251 CNS
NCI-H460 lung = system: NCI-H460 lung
A549 NSCLC = system: A549 NSCLC
SK-OV-3 ovarian = system: SK-OV-3 ovarian
NCI-H522 lung = system: NCI-H522 lung
CAKI-1 renal = system: CAKI-1 renal

Structure (SMILES) | GI50 (KM12 colon) [µM] | TGI (KM12 colon) | GI50 (NCI-H226 lung) | TGI (NCI-H226 lung) | GI50 (NCI-H23 lung) [µM] | TGI (NCI-H23 lung) [µM] | GI50 (M14 melanoma) | TGI (M14 melanoma) [µM] | GI50 (U251 CNS) [µM] | TGI (U251 CNS) | GI50 (NCI-H460 lung) [µM] | TGI (NCI-H460 lung) | GI50 (A549 NSCLC) | TGI (A549 NSCLC) | GI50 (SK-OV-3 ovarian) | TGI (SK-OV-3 ovarian) | GI50 (NCI-H522 lung) [µM] | TGI (NCI-H522 lung) | GI50 (CAKI-1 renal) [µM] | TGI (CAKI-1 renal)
N#Cc1c(O)c2c(c(O)c1C#N)C(=O)c1ccccc1C2=O | 2.59 | 12.1 µM | 2.83 µM | 25.3 µM | 0.621 | 2.7 | 0.41 µM | 1.92 | 1.92 | 5.54 µM | 1.04 | > 33.8 µM | 1.62 µM | 8.02 µM | 3.99 µM | > 34.9 µM | 2 | 5.92 µM | 2.65 | 8.3 µM
CCOC(=O)c1cc(-c2ccc([N+](=O)[O-])cc2)n(-c2ccc(C(=O)O)c(O)c2)c1C | 3.55 | 11.7 µM | 11.2 µM | 33.9 µM | 3.18 | 13.7 | 4.26 µM | 15.2 | 3.61 | 14.1 µM | 4.16 | 17 µM | 3.38 µM | 12.7 µM | 10.8 µM | 23 µM | 6.48 | 23.9 µM | 11.6 | 30.1 µM
O=C(Cc1ccc(/C=C/C(=O)c2ncc[nH]2)cc1)Nc1ccc(Cl)cc1 | 1.3 | 5.23 µM | 7.5 µM | > 25 µM | 2.97 | 11.5 |  |  | 1.02 | 3.49 µM | 3.43 | > 25 µM | 6.9 µM | > 25 µM | 9.74 µM | > 25 µM | 2.6 | 7.23 µM | 4.88 | 15.4 µM
O=C(O)CCCc1ccc(N(CCCl)CCCl)cc1 |  | 57.8 µM and 351 µM and 485 µM | 16.1 µM and 120 µM | 42.4 µM and 276 µM and 362 µM |  |  | 14.9 µM and 91.3 µM |  |  | 29.9 µM and 219 µM and 251 µM | 2.13 | 44.5 µM and 228 µM | 12.7 µM and > 89.5 µM | > 92.2 µM and 633 µM and 621 µM | 20.4 µM and 196 µM | 52 µM and 402 µM and 498 µM |  | 13.1 µM and 100 µM and 99.4 µM | 5.86 | 28.1 µM and 146 µM and 247 µM
O=C(O)c1cc(S(=O)(=O)N=NC=C2c3ccccc3N(O)c3ccccc32)ccc1O |  | > 100 µM |  | 72.4 µM |  | 53.3 |  | 79.2 |  | > 100 µM |  | 33.5 µM |  | > 100 µM |  | 92.2 µM |  | 23.8 µM |  | > 100 µM
COc1cc2c(c(OC)c1OC)-c1ccc(NCc3ccccc3)c(=O)cc1[C@@H](NC(C)=O)CC2 | 0.374 | 19.9 µM | 1.01 µM | 17.1 µM | 0.628 | 54.9 | 0.359 µM | 23.2 | 0.368 | 11.8 µM | 0.369 | 18 µM | 0.453 µM | > 100 µM | 0.294 µM | 0.833 µM | 0.327 | 1.52 µM | 3.23 | 45.8 µM
Cc1c(C(=O)/C=C/c2cccc3ccccc23)[n+](=O)c2ccccc2n1[O-] |  | 27.1 µM |  | 27.9 µM |  | 25.7 |  | 26.9 |  | 29.1 µM |  | 32.5 µM |  | 35 µM |  | 32.6 µM |  | 19.8 µM |  | 21.8 µM
Cn1c(-c2nonc2N)nc2cnccc21 | > 25 | > 25 µM | > 25 µM | > 25 µM | > 25 | > 25 | > 25 µM | > 25 | > 25 | > 25 µM | > 25 | > 25 µM | > 25 µM | > 25 µM | > 25 µM | > 25 µM | > 25 | > 25 µM | 13.7 | > 25 µM
COc1cccc(-c2nn(-c3ccccc3)cc2-c2ccnc(NCCCNS(=O)(=O)c3cccc(F)c3)c2)c1 | 3.38 | > 100 µM | 6.75 µM | > 100 µM | 4.47 | > 100 | 3.3 µM | > 100 | 4.83 | > 100 µM | 4.93 | > 100 µM | 6.34 µM | > 100 µM | 3.18 µM | > 100 µM | 2.05 | 21.2 µM | 6.16 | > 100 µM
COc1cc2c(NCCCCCCO[N+](=O)[O-])ncnc2c(OC)c1OC |  | 33.5 µM |  | 45.5 µM |  | 59.6 |  | 36.8 |  | > 100 µM |  | 69.8 µM |  | > 95.7 µM |  | > 100 µM |  | 52.9 µM |  | 62.3 µM
C#CC(C)(C)Oc1cc(O)c2c(=O)c3ccccc3n(C)c2c1 |  |  |  | > 100 µM |  | > 100 |  | > 100 |  | > 100 µM |  | > 100 µM |  | > 100 µM |  | > 100 µM |  | > 100 µM |  | > 100 µM
COc1cc2c(c(O)c1C)C(=O)C(Cl)=CC2=O |  | 42.1 µM |  | 36.5 µM |  | 25 |  | 16.5 |  | 47.3 µM |  | 63.3 µM |  | 55.8 µM |  | > 65.6 µM |  | 5.24 µM |  | 11.6 µM
CC(=O)/C=C/c1cccc(N=S)c1 |  | 20.2 µM |  | > 83.3 µM |  | > 92.7 |  | 22.4 |  | 20.8 µM |  | > 53.8 µM |  | > 59.1 µM |  | > 81.9 µM |  | > 53.7 µM |  | > 100 µM
O=S(=O)(O)C(O)/C=C/c1ccccc1 (stereo not given) |  | > 100 µM |  | > 100 µM |  | > 100 |  | > 100 |  | > 100 µM |  |  |  | > 100 µM |  | > 100 µM |  | > 100 µM |  | > 100 µM
Cc1cc(C)nc(NS(=O)(=O)c2ccc(NC(=O)c3cccc4c(=O)c5ccccc5[nH]c34)cc2)n1 |  | 30.7 µM |  | 36 µM |  | 33.4 |  | 40.7 |  | 32.4 µM |  | 36.1 µM |  | 51.2 µM |  | 17.1 µM |  | 27.6 µM |  | > 100 µM
OC(c1cccc(C(F)(F)F)c1)c1cnccc1NC1CCCCCC1 (stereo not given) | 1.93 | 3.75 µM | 2.76 µM | 16.6 µM | 1.85 | 5.39 | 1.8 µM | 3.64 | 1.83 | 3.43 µM | 1.84 | 3.57 µM | 3.58 µM | 11.4 µM | 7 µM | 20 µM | 1.65 | 3.56 µM | 1.55 | 3.85 µM
